Experimental data reported in patent US7858635B2 (priority 2005, dated 2010).
Like-named read-outs stand apart in the source and are kept apart here.

Key:
[1] = molecular target: T1, M1 muscarinic receptor (Homo sapiens, UniProt P11229); assay: Functional mobilization of intracellular calcium (FLIPR, Fluo-3), M1-CHO cells; assay type: cell-based; details: for Emax: read-out: M1 Efficacy
T1 construct: expressed in transfected cells; host or cells: CHO cells (M1-CHO, under zeocin and G418 selection)
T1 sequence (P11229 1-460): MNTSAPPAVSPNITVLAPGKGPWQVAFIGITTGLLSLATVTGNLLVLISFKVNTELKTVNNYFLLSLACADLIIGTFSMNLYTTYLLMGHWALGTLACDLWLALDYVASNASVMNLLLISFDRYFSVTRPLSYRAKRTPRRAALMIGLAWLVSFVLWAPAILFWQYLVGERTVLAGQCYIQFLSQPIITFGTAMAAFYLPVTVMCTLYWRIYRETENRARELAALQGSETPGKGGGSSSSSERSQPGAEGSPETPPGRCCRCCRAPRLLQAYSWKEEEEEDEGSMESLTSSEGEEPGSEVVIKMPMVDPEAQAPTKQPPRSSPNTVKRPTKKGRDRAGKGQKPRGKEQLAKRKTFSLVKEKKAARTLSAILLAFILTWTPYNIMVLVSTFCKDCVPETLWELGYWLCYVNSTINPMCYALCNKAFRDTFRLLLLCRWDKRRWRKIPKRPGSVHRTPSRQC
How it was run: (§1)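 CHO lines stably carrying the muscarinic subtype, dye-loaded with Fluo-3 at 37° C for 60-90 min, receive test compound in 0.5% DMSO. Agonist effects are read directly; antagonist effects against carbachol at EC80 after 15 min pre-incubation.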

[2] = molecular target: T2, M4 muscarinic receptor (Homo sapiens, UniProt P08173); assay: Functional mobilization of intracellular calcium (FLIPR, Fluo-3), M4-CHO cells; assay type: cell-based; details: for Emax: read-out: M4 Efficacy
T2 construct: expressed in transfected cells; host or cells: CHO cells (M4-CHO, under puromycin, zeocin and blasticidin selection)
T2 sequence (P08173 1-479): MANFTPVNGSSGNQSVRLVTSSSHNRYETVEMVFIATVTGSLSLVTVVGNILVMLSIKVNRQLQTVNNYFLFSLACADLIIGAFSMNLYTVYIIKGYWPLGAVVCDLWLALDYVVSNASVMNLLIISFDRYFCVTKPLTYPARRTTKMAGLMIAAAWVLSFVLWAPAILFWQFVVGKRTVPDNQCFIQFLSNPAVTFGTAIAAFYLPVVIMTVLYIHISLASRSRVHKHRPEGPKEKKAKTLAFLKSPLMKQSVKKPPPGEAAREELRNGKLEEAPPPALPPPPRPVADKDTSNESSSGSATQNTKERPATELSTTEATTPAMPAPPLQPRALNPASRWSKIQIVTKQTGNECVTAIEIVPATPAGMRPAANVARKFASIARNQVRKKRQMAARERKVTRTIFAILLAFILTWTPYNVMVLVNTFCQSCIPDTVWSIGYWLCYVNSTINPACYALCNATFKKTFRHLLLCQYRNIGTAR
How it was run: as §1

[3] = compound nos. 1-454, 100% efficacy is the maximum response obtained with the Carbachol control
[4] = compound nos. 1-454, M1-CHO cells, calcium mobilization
[5] = compound nos. 1-454, M4-CHO cells, calcium mobilization
[6] = compound nos. 455-509, 100% efficacy is the maximum response obtained with the Carbachol control

CCOC(=O)N1C2CCC1CC(N1CCC3(CC1)CN(C(=O)C1CCC1)c1ccc(F)cc13)C2 (stereo not drawn) [compound 179]
Emax [1, 3]: > 85% | M1 Activity [1, 4]: ++ (activity was measured to be between 0.7 μM and 3.0 μM) | Emax [2, 3]: 55 to 70% | M4 Activity [2, 5]: + (activity was measured to be greater than or equal to 4.0 μM)

CCCOC(=O)N1C2CCC1CC(N1CCC3(CC1)CN(C(=O)O[C@@H]1CCOC1)c1ccc(F)cc13)C2 (stereo partly drawn) [compound 297]
M1 Efficacy [1, 3]: ++ (efficacy was calculated to be between 85% and 65%) | M1 Activity [1, 4]: + (activity was measured to be greater than or equal to 3.0 μM) | M4 Efficacy [2, 3]: ++ (efficacy was calculated to be between 70% and 55%) | M4 Activity [2, 5]: + (activity was measured to be greater than or equal to 4.0 μM)

CC(=O)N1CC2(CCN(C3CCN(C(=O)OC4CCC4)CC3)CC2)c2cc(C)ccc21 [compound 151]
Emax [1, 3]: > 85% | M1 Activity [1, 4]: +++ (activity was measured to be less than or equal to 0.7 μM) | Emax [2, 3]: > 70% | M4 Activity [2, 5]: +++ (activity was measured to be less than or equal to 0.1 μM)

CCOC(=O)N1CCC(CN2CCC3(CC2)CN(C(C)=O)c2ccc(C)cc23)CC1 [compound 46]
Emax [1, 3]: > 85% | M1 Activity [1, 4]: +++ (activity was measured to be less than or equal to 0.7 μM) | Emax [2, 3]: 55 to 70% | M4 Activity [2, 5]: +++ (activity was measured to be less than or equal to 0.1 μM)

O=C(O[C@@H]1CCOC1)N1C2CCC1CC(N1CCC3(CCc4ccccc43)CC1)C2 (stereo partly drawn) [compound 43]
Emax [1, 3]: > 85% | M1 Activity [1, 4]: +++ (activity was measured to be less than or equal to 0.7 μM) | Emax [2, 3]: > 70% | M4 Activity [2, 5]: + (activity was measured to be greater than or equal to 4.0 μM)

CCOC(=O)N1CCC(N2CCC3(CC2)CNc2ccccc23)CC1 [compound 352]
Emax [1, 3]: > 85% | M1 Activity [1, 4]: +++ (activity was measured to be less than or equal to 0.7 μM) | Emax [2, 3]: > 70% | M4 Activity [2, 5]: + (activity was measured to be greater than or equal to 4.0 μM)

CC(=O)N[C@H]1CC2(CCN(CC3CCCCC3)CC2)c2ccccc21 [compound 184]
Emax [1, 3]: > 85% | M1 Activity [1, 4]: ++ (activity was measured to be between 0.7 μM and 3.0 μM) | Emax [2, 3]: 55 to 70% | M4 Activity [2, 5]: + (activity was measured to be greater than or equal to 4.0 μM)

CCOC(=O)N1CCC(CN2CCC3(CC2)COc2ccc(Cl)cc23)CC1 [compound 176]
Emax [1, 3]: > 85% | M1 Activity [1, 4]: ++ (activity was measured to be between 0.7 μM and 3.0 μM) | Emax [2, 3]: 55 to 70% | M4 Activity [2, 5]: ++ (activity was measured to be between 0.1 μM and 4.0 μM)

CN(C)C(=O)N1CC2(CCN(C3CCN(c4ncns4)CC3)CC2)c2ccccc21 [compound 506]
Emax [1, 6]: > 100% | M1 Activity ([1]; compounds 455-509): ++ (activity was measured to be between 2.0 μM and 5.0 μM) | Emax [2, 6]: 25 to 100% | M4 Activity ([2]; compounds 455-509): ++ (activity was measured to be between 2.0 μM and 5.0 μM)

CCc1nsc(N2CCC(N3CCC4(CC3)CN(C(C)=O)c3ccccc34)CC2)n1 [compound 498]
Emax [1, 6]: > 100% | M1 Activity ([1]; compounds 455-509): +++ (activity was measured to be less than or equal to 2.0 μM) | Emax [2, 6]: 25 to 100% | M4 Activity ([2]; compounds 455-509): ++ (activity was measured to be between 2.0 μM and 5.0 μM)

COc1ccc(N2CCC(N3CCC4(CC3)CN(C(=O)N(C)C)c3ccc(F)cc34)CC2)nn1 [compound 488]
Emax [1, 6]: > 100% | M1 Activity ([1]; compounds 455-509): + (activity was measured to be greater than or equal to 5.0 μM) | Emax [2, 6]: 25 to 100% | M4 Activity ([2]; compounds 455-509): ++ (activity was measured to be between 2.0 μM and 5.0 μM)

COCCOC(=O)N1CCC(N2CCC3(CC2)CN(C(C)=O)c2ccc(C)cc23)CC1 [compound 293]
Emax [1, 3]: > 85% | M1 Activity [1, 4]: ++ (activity was measured to be between 0.7 μM and 3.0 μM) | Emax [2, 3]: > 70% | M4 Activity [2, 5]: +++ (activity was measured to be less than or equal to 0.1 μM)

CCOC(=O)N1C2CCC1CC(N1CCC3(CC1)CN(C(=O)c1cc(C)n(C)n1)c1ccc(F)cc13)C2 (stereo not drawn) [compound 50]
Emax [1, 3]: > 85% | M1 Activity [1, 4]: +++ (activity was measured to be less than or equal to 0.7 μM) | Emax [2, 3]: > 70% | M4 Activity [2, 5]: ++ (activity was measured to be between 0.1 μM and 4.0 μM)

CCOC(=O)N1CCC(N2CCC3(CC2)CN(C(=O)OC)c2ccc(F)cc23)CC1 [compound 173]
Emax [1, 3]: 65 to 85% | M1 Activity [1, 4]: +++ (activity was measured to be less than or equal to 0.7 μM) | Emax [2, 3]: > 70% | M4 Activity [2, 5]: ++ (activity was measured to be between 0.1 μM and 4.0 μM)

COC(=O)N1CC2(CCN(C3CC4CCC(C3)N4C(=O)OCC(C)C)CC2)c2cc(F)ccc21 (stereo not drawn) [compound 287]
Emax [1, 3]: < 65% | M1 Activity [1, 4]: ++ (activity was measured to be between 0.7 μM and 3.0 μM) | Emax [2, 3]: < 55% | M4 Activity [2, 5]: + (activity was measured to be greater than or equal to 4.0 μM)

CN(C)C(=O)N1CC2(CCN(C3CCN(c4cnc5ccccc5n4)CC3)CC2)c2ccccc21 [compound 497]
Emax [1, 6]: > 100% | M1 Activity ([1]; compounds 455-509): +++ (activity was measured to be less than or equal to 2.0 μM) | Emax [2, 6]: 25 to 100% | M4 Activity ([2]; compounds 455-509): ++ (activity was measured to be between 2.0 μM and 5.0 μM)

O=C(O[C@@H]1CCOC1)N1CC2(CCN(C3CC4CCC(C3)N4C(=O)O[C@@H]3CCOC3)CC2)c2cc(F)ccc21 (stereo partly drawn) [compound 243]
Emax [1, 3]: 65 to 85% | M1 Activity [1, 4]: +++ (activity was measured to be less than or equal to 0.7 μM) | Emax [2, 3]: 55 to 70% | M4 Activity [2, 5]: + (activity was measured to be greater than or equal to 4.0 μM)

Clc1ccc2c(c1)C1(CCN(C3C[C@@H]4CCC3C4)CC1)CO2 (stereo in doubt) [compound 1, 1′-((1S,2R,4R)-bicyclo[2.2.1]heptan-2-yl)-5-chloro-2H-spiro[benzofuran-3,4′-piperidine]]
Emax [1, 3]: 65 to 85% | M1 Activity [1, 4]: ++ (activity was measured to be between 0.7 μM and 3.0 μM) | Emax [2, 3]: > 70% | M4 Activity [2, 5]: ++ (activity was measured to be between 0.1 μM and 4.0 μM)

CCOC(=O)N1C2CCC1CC(N1CCC3(CC1)CN(C(=O)O[C@@H]1CCOC1)c1ccc(F)cc13)C2 (stereo partly drawn) [compound 344]
Emax [1, 3]: 65 to 85% | M1 Activity [1, 4]: +++ (activity was measured to be less than or equal to 0.7 μM) | Emax [2, 3]: < 55% | M4 Activity [2, 5]: ++ (activity was measured to be between 0.1 μM and 4.0 μM)

Fc1ccc2c(c1)C1(CCN(C3CCCCC3)CC1)CN2 [compound 325]
Emax [1, 3]: 65 to 85% | M1 Activity [1, 4]: + (activity was measured to be greater than or equal to 3.0 μM) | Emax [2, 3]: < 55% | M4 Activity [2, 5]: + (activity was measured to be greater than or equal to 4.0 μM)

CCOC(=O)N1CCC(N2CCC3(CC2)CN(C(C)=O)c2ccc(C4CC4)cc23)CC1 [compound 245]
Emax [1, 3]: < 65% | M1 Activity [1, 4]: ++ (activity was measured to be between 0.7 μM and 3.0 μM) | Emax [2, 3]: > 70% | M4 Activity [2, 5]: ++ (activity was measured to be between 0.1 μM and 4.0 μM)
